Assay results as given in patent US11242337B2, “Compounds useful for treating gastrointestinal tract disorders” (Ardelyx, Inc., priority 2017, dated 2022).
Structures can show the parent of a compound that is named as a salt.

Columns and labels:
NHE3 [1] = biological target: T1, NHE3 (Homo sapiens, UniProt P48764); test: Cell-based assay of NHE-3 activity (pre-incubation inhibition), human; settings: human Preincubation; for pIC50: 0-30 μM test compound
T1 construct: expressed in transfected cells
T1 sequence (P48764 26-834): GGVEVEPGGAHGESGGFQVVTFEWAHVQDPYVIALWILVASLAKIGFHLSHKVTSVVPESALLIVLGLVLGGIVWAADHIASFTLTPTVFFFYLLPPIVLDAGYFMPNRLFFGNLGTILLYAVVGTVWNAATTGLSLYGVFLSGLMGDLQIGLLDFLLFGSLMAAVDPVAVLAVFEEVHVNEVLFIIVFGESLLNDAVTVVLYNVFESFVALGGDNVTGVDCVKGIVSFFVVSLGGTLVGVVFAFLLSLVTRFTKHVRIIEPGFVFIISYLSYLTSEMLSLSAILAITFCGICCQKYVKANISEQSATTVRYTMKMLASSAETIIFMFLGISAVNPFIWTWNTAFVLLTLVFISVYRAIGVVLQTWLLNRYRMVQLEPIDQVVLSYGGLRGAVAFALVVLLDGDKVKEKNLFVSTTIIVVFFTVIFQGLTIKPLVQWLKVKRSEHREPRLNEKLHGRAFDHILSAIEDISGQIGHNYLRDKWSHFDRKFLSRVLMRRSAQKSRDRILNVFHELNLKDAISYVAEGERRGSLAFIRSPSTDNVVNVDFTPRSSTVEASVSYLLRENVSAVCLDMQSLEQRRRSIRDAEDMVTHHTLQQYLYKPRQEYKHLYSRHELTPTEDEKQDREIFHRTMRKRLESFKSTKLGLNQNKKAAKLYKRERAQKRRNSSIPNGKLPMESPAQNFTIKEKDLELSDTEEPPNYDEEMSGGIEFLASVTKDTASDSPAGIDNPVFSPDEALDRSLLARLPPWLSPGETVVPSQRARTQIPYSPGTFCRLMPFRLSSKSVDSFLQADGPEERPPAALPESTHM
T1 sequence (Q99653 2-195 partner limits assumed): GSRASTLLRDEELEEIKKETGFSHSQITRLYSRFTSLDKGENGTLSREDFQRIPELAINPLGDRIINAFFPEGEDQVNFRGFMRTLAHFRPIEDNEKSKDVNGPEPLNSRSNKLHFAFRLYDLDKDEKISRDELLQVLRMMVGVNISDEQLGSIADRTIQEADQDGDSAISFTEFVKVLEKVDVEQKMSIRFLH
Procedure: Rat and human NHE-3-mediated Na^+-dependent H^+ antiport was measured using a modification of the pH sensitive dye method originally reported by Paradiso (Proc. Natl. Acad. Sci. USA. (1984) 81(23): 7436-7440). PS120 fibroblasts stably expressing human NHE3 and NHERF2 were obtained from Mark Donowitz (Baltimore, Md.). Opossum kidney (OK) cells were obtained from the ATCC and propagated per their instructions. The rat NHE-3 gene (GenBank M85300) was introduced into OK cells via electroporation, and cells were seeded into 96 well plates and grown overnight. Medium was aspirated from the wells then incubated for 30 min at 37° C. with NH4Cl-HEPES buffer (20 mM NH4Cl, 80 mM NaCl, 50 mM HEPES, 5 mM KCl, 2 mM CaCl2, 1 mM MgCl2, pH 7.4) containing 5 μM BCECF-AM. Cells were washed once with Ammonium free, Na^+-free HEPES (100 mM choline, 50 mM HEPES, 10 mM glucose, 5 mM KCl, 2 mM CaCl2, 1 mM MgCl2, pH 7.4) and incubated in the same buffer for 10 minutes at room temperature to lower intracellular pH with 0-30 μM test compound. […] Changes in intracellular pH were monitored using a FLIPR Tetra® (Molecular Devices, Sunnyvale, Calif.) by excitation at λex 439 to 505 nm, and measuring BCECF fluorescence at λem 538 nm. The initial rate of the fluorescence ratio change was used as a measure of NHE-mediated Na^+/H^+ activity, and reported as the change in fluorescence ratio per minute.

NHE3 [2] = biological target: T1, NHE3; test: Cell-based assay of NHE-3 activity (persistent inhibition), human; settings: human Persistence, 60 min incubation then washout
Procedure: The ability of compounds to inhibit human and rat NHE-3-mediated Na^+ dependent H^+ antiport after application and washout was measured using a modification of the pH sensitive dye method described above. PS120 fibroblasts stably expressing human NHE3 and NHERF2 were obtained from Mark Donowitz (Baltimore, Md.). Opossum kidney (OK) cells were obtained from the ATCC and propagated per their instructions. The rat NHE-3 gene was introduced into OK cells via electroporation, and cells were seeded into 96 well plates and grown overnight. Medium was aspirated from the wells, cells were washed once with NaCl-HEPES buffer (100 mM NaCl, 50 mM HEPES, 10 mM glucose, 5 mM KCl, 2 mM CaCl2, 1 mM MgCl2, pH 7.4), then overlayed with NaCl-HEPES buffer containing 0-30 μM test compound. After a 60 min incubation at room temperature, the test drug containing buffer was aspirated from the cells. Following aspiration, cells were washed once with NaCl-HEPES buffer without drug, then incubated for 30 min at 37° C. with NH4Cl-HEPES buffer (20 mM NH4Cl, 80 mM NaCl, 50 mM HEPES, 5 mM KCl, 2 mM CaCl2, 1 mM MgCl2, pH 7.4) containing 5 μM BCECF-AM. Cells were washed once with Ammonium free, Na^+-free HEPES (100 mM choline, 50 mM HEPES, 10 mM glucose, 5 mM KCl, 2 mM CaCl2, 1 mM MgCl2, pH 7.4) and incubated in the same buffer for 10 minutes at room temperature to lower intracellular pH. NHE-3-mediated recovery of neutral intracellular pH was initiated (10 min after compound washout) by addition of Na-HEPES buffer. […] Changes in intracellular pH were monitored using a FLIPR Tetra® (Molecular Devices, Sunnyvale, Calif.) by excitation at λex 439 to 505 nm, and measuring BCECF fluorescence at λem 538 nm. The initial rate of the fluorescence ratio change was used as a measure of NHE-mediated Na^+/H^+ activity, and reported as the change in fluorescence ratio per minute.

| SMILES | % inhibition (NHE3 [1]) | pIC50 (NHE3 [1]) | % inhibition (NHE3 [2]) | pIC50 (NHE3 [2]) |
| --- | --- | --- | --- | --- |
| Cc1cc(S(=O)(=O)NCCOCCOCCNC(=O)NCCCCNC(=O)NCCOCCOCCNS(=O)(=O)c2ccc(O[C@H]3c4cc(Cl)cc(C#N)c4C[C@@H]3N(C)C)c(C)c2)ccc1O[C@H]1c2cc(Cl)cc(C#N)c2C[C@@H]1N(C)C [Example 18, 3-[2-(2-[2-[(4-[[(1S,2S)-6-Chloro-4-cyano-2-(dimethylamino)-2,3-dihydro-1H-inden-1-yl]oxy]-3-methylbenzene)sulfonamido]ethoxy]ethoxy)ethyl]-1-[4-([[2-(2-[2-[(4-[[(1S,2S)-6-chloro-4-cyano-2-(dimethylamino)-2,3-dihydro-1H-inden-1-yl]oxy]-3-methylbenzene)sulfonamido]ethoxy]ethoxy)ethyl]carbamoyl]amino)butyl]urea; bis(trifluoroacetic acid)] | B (40-70%) | C (NHE3 pIC50 > 7) | B (40-70%) | C (NHE3 pIC50 > 7) |
| Cc1cc(S(=O)(=O)NCCOCCOCCNC(=O)NCCCCNC(=O)NCCOCCOCCNS(=O)(=O)c2ccc(O[C@H]3c4cc(Cl)cc(C(F)(F)F)c4C[C@@H]3N(C)C)c(C)c2)ccc1O[C@H]1c2cc(Cl)cc(C(F)(F)F)c2C[C@@H]1N(C)C [Example 19, 3-[2-(2-[2-[(4-[[(1S,2S)-6-Chloro-2-(dimethylamino)-4-(trifluoromethyl)-2,3-dihydro-1H-inden-1-yl]oxy]-3-methylbenzene)sulfonamido]ethoxy]ethoxy)ethyl]-1-[4-([[2-(2-[2-[(4-[[(1S,2S)-6-chloro-2-(dimethylamino)-4-(trifluoromethyl)-2,3-dihydro-1H-inden-1-yl]oxy]-3-methylbenzene)sulfonamido]ethoxy]ethoxy)ethyl]carbamoyl]amino)butyl]urea] | A (NHE3 < 40%) | A (NHE3 pIC50 < 6) | A (NHE3 < 40%) | A (NHE3 pIC50 < 6) |
| Cc1cc(S(=O)(=O)NCCOCCOCCNC(=O)NCCCCNC(=O)NCCOCCOCCNS(=O)(=O)c2ccc(O[C@H]3c4cc(Cl)cc(OC(F)(F)F)c4C[C@@H]3N(C)C)c(C)c2)ccc1O[C@H]1c2cc(Cl)cc(OC(F)(F)F)c2C[C@@H]1N(C)C [Example 20, 1-[2-(2-[2-[(4-[[(1S,2S)-6-Chloro-2-(dimethylamino)-4-(trifluoromethoxy)-2,3-dihydro-1H-inden-1-yl]oxy]-3-methylbenzene)sulfonamido]ethoxy]ethoxy)ethyl]-3-[4-([[2-(2-[2-[(4-[[(1S,2S)-6-chloro-2-(dimethylamino)-4-(trifluoromethoxy)-2,3-dihydro-1H-inden-1-yl]oxy]-3-methylbenzene)sulfonamido]ethoxy]ethoxy)ethyl]carbamoyl]amino)butyl]urea] | A (NHE3 < 40%) | A (NHE3 pIC50 < 6) | A (NHE3 < 40%) | A (NHE3 pIC50 < 6) |
| COc1cc(Cl)cc2c1C[C@H](N(C)C)[C@H]2Oc1ccc(S(=O)(=O)NCCOCCOCCNC(=O)NCCCCNC(=O)NCCOCCOCCNS(=O)(=O)c2ccc(O[C@H]3c4cc(Cl)cc(OC)c4C[C@@H]3N(C)C)c(C)c2)cc1C [Example 21, 3-[2-(2-[2-[(4-[[(1S,2S)-6-Chloro-2-(dimethylamino)-4-methoxy-2,3-dihydro-1H-inden-1-yl]oxy]-3-methylbenzene)sulfonamido]ethoxy]ethoxy)ethyl]-1-[4-([[2-(2-[2-[(4-[[(1S,2S)-6-chloro-2-(dimethylamino)-4-methoxy-2,3-dihydro-1H-inden-1-yl]oxy]-3-methylbenzene)sulfonamido]ethoxy]ethoxy)ethyl]carbamoyl]amino)butyl]urea; bis(trifluoroacetic acid)] | A (NHE3 < 40%) | C (NHE3 pIC50 > 7) | C (>70%) | A (NHE3 pIC50 < 6) |
| Cc1cc(S(=O)(=O)NCCOCCOCCNC(=O)NCCCCNC(=O)NCCOCCOCCNS(=O)(=O)c2ccc(O[C@H]3c4cc(Cl)cc(Cl)c4C[C@@H]3N(C)C)c(C)c2)ccc1O[C@H]1c2cc(Cl)cc(Cl)c2C[C@@H]1N(C)C [Example 22, 3-[2-(2-[2-[(4-[[(1S,2S)-4,6-Dichloro-2-(dimethylamino)-2,3-dihydro-1H-inden-1-yl]oxy]-3-methylbenzene)sulfonamido]ethoxy]ethoxy)ethyl]-1-[4-([[2-(2-[2-[(4-[[(1S,2S)-4,6-dichloro-2-(dimethylamino)-2,3-dihydro-1H-inden-1-yl]oxy]-3-methylbenzene)sulfonamido]ethoxy]ethoxy)ethyl]carbamoyl]amino)butyl]urea dihydrochloride] | C (>70%) | C (NHE3 pIC50 > 7) | C (>70%) | C (NHE3 pIC50 > 7) |
| CN(C)[C@@H]1CCCN([C@H]2Cc3c(Cl)cc(Cl)cc3[C@@H]2Oc2ccc(S(=O)(=O)NCCOCCOCCNC(=O)NCCCCNC(=O)NCCOCCOCCNS(=O)(=O)c3ccc(O[C@H]4c5cc(Cl)cc(Cl)c5C[C@@H]4N4CCC[C@@H](N(C)C)C4)cc3)cc2)C1 [Example 25] | C (>70%) |  | C (>70%) |  |
| CN(C)[C@H]1Cc2c(C#N)cc(Cl)cc2[C@@H]1Oc1ccc(S(=O)(=O)NCCOCCOCCNC(=O)NCCCCNC(=O)NCCOCCOCCNS(=O)(=O)c2ccc(O[C@H]3c4cc(Cl)cc(C#N)c4C[C@@H]3N(C)C)c(F)c2)cc1F [Example 37, 3-[2-(2-[2-[(4-[[(1S,2S)-6-Chloro-4-cyano-2-(dimethylamino)-2,3-dihydro-1H-inden-1-yl]oxy]-3-fluorobenzene)sulfonamido]ethoxy]ethoxy)ethyl]-1-[4-([[2-(2-[2-[(4-[[(1S,2S)-6-chloro-4-cyano-2-(dimethylamino)-2,3-dihydro-1H-inden-1-yl]oxy]-3-fluorobenzene)sulfonamido]ethoxy]ethoxy)ethyl]carbamoyl]amino)butyl]urea] | B (40-70%) | C (NHE3 pIC50 > 7) | B (40-70%) | C (NHE3 pIC50 > 7) |
